Patent US20080089860A1, “Therapeutic compositions and methods useful in treating cancer” (priority 2006, published 2008)

Assays:
[1] = test system: Jak2/Stat5 and cellular protein tyrosine phosphorylation in Baf3 cells; assay: Cellular protein phosphorylation and Western blotting in Baf3 cells; assay type: cell-based, murine
Protocol: For induction of cellular protein phosphorylation by sodium stibogluconate or pervanadate, Baf3 cells were incubated in 0.1% FCS-RPMI 1640 medium at 37° C. for 16 hours. The cells were then washed twice in RPMI 1640 medium and incubated with sodium stibogluconate or pervanandate (0.1 mM) for various times prior to termination by lysing cells in cold lysis buffer (50 mM Tris, pH 7.4; 150 mM NaCl; 0.2 mM Na3VO4; 20 mm NaF; 1% Nonidet P-40; 2 mM PMSF; 20 µg/ml of Aprotinin and 1 mM of sodium molybdic acid). To determine the effect of sodium stibogluconate or potassium antimonyl tartrate on IL-3-induced Jak/Stat phosphorylation, Baf3 cells were deprived of the growth factor for 16 hours in 0.1% FCS RPMI 1640 medium and then incubated with or without sodium stibogluconate or potassium antimonyl tartrate for 10 minutes. IL-3 was next added to the cell suspension and incubated for various times. The Cells were then harvested and lysed in cold lysis buffer at 4° C. for 45 minutes. Total cell lysates (TCL) were separated in SDS-PAGE gels, blotted onto nitrocellulose membrane (Schleicher & Schuell), probed with specific antibodies and detected using an enhanced chemiluminescence kit (ECL, Amersham, Arlington Heights, Ill.).

TF-1 cells = assay: TF-1 cell proliferation assay; assay type: cell-based, human
Protocol: The murine hematopoietic cell line Baf3 was maintained in RPMI 1640 medium supplemented with 10% fetal calf serum (FCS) and murine IL-3 (20 units/ml) as described previously in Damen et al., J. Biol. Chem. 270, 23402 (1995). Human myeloid cell line TF-1 was maintained in RPMI 1640 supplemented with 10% FCS and 40 ng/ml of recombinant human GM-CSF as described previously in Thomassen et al., Clin. Immunol. 95, 85 (2000). For cell proliferation assays, cells were washed in 10% FCS medium twice, resuspended in 10% FCS medium, incubated at 37° C. for 16 hours, and then cultured at 37° C. in 10% FCS medium containing various amounts of cytokines, sodium stibogluconate, or potassium antimonyl tartrate for 3-6 days as indicated. The cell numbers in proliferation assays were determined by an MTT assay or by microscopic cell counting as indicated.

Jurkat cells = assay: IFN-gamma secretion by Jurkat cells, ELISA; assay type: cell-based, human; details: 16 hrs
Protocol: Jurkat cells were cultured in the absence or presence of various amounts of SSG for 16 hours. The cells and culture medium supernatants were separated by centrifugation (1,000 g, 10 min). The amounts of IFN-gamma in the culture medium supernatants were quantified using an ELISA kit (R.D. system, Minneapolis, Minn.) following the manufacturer's protocol.

[2] = test system: WM9 transfectants (vector, PRL-1, PRL-1R86); assay: Growth of WM9 transfectants, MTT assay; assay type: cell-based, human; details: 50 or 100 μg/ml
Protocol: NIH3T3 (Yi, et al., Blood 85, 87 (1995)), WM9 (Forsberg, et al., Proc. Nat. Acad. Sci. USA 90, 393 (1993)), DU145 (Mickey, et al., Cancer Res. 37, 4049 (1977)), LoVo (Drewinko, et al., Cancer Res. 36, 467 (1976)), HEY (Buick, et al., Cancer Res. 45, 3668 (1985)), U251 (Yoshida, et al., Cancer 50, 410 (1982)), A549 (Giard, et al., J. Natl. Cancer Inst. 51, 1417 (1973)) and SK-N-SH (Helson, et al., Cancer Res. 35, 2594 (1975)) cell lines have been described and were cultured in RPMI 1640 supplemented with 10% fetal calf serum (FCS). For measurement of sodium stibogluconate effects on cell growth in vitro, cells were cultured in the absence (−) or presence (+) of various amounts of sodium stibogluconate for 6 days with viable cells quantified by MTT assays (Mosmann, J. Immunol. Methods 65, 55 (1983)). Percentages of growth inhibition by sodium stibogluconate were calculated (.+−.x %).
The effects of sodium stibogluconate on intracellular PTPases were assessed using NIH3T3 or WM9 transfectants. […]
To further assess whether expression of the PRL-1R86 mutant affects sodium stibogluconate-induced growth inhibition, the transfectants were cultured in the absence or presence of sodium stibogluconate for 6 days with viable cells determined by MTT assays. […]

O.O.O.O.O.O.O.O.O.O=C([O-])[C@@H]1[O][Sb]2([O-])([O][Sb]34([OH])[O][C@H]([C@H](O)CO)[C@H]([O]3)[C@H](C(=O)[O-])[O]4)[O][C@H]([C@H](O)CO)[C@@H]1[O]2.[Na+].[Na+].[Na+] [sodium stibogluconate]
induced cellular protein tyrosine phosphorylation ([1]; Baf3 cells, in comparison with pervanadate (0.1 mM)): modest and transient | phosphotyrosine levels of Jak2 and Stat5 relative to cells without drug treatment ([1]; IL-3-stimulated Baf3 cells, densitometry): about twice | Jak2/Stat5 tyrosine phosphorylation by drug alone ([1]; no IL-3, 37 °C for 16 hours): failed to induce | GM-CSF-induced proliferation of TF-1 cells (TF-1 cells; 50 μg/ml, GM-CSF 5-40 ng/ml): augmented | effect on GM-CSF-induced cell growth (TF-1 cells; low doses 12.5-50 μg/ml): no negative effect | IFN-gamma secretion by Jurkat T cells (Jurkat cells): increased amounts of IFN-gamma | growth inhibition of R86 cells [2]: only modest growth inhibition
